From PubChem BioAssay (NCI)
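The concentration for 50% growth inhibition is given as GI50. Definition used: TGI = concentration required for complete inhibition of growth.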

Experiments:
Test in all cases: NCI tumour cell line growth inhibition, 384-well format
NCI-H226 lung = test system: NCI-H226 lung
NCI-H23 lung = test system: NCI-H23 lung
NCI-H322M lung = test system: NCI-H322M lung
NCI-H460 NSCLC = test system: NCI-H460 NSCLC
NCI-H522 lung = test system: NCI-H522 lung
NCI/ADR-RES ovarian = test system: NCI/ADR-RES ovarian
OVCAR-3 ovarian = test system: OVCAR-3 ovarian
OVCAR-4 ovarian = test system: OVCAR-4 ovarian
OVCAR-8 ovarian = test system: OVCAR-8 ovarian
RPMI-8226 leukemia = test system: RPMI-8226 leukemia
RXF 393 renal = test system: RXF 393 renal
SF-268 CNS = test system: SF-268 CNS
SF-295 CNS = test system: SF-295 CNS
SF-539 CNS = test system: SF-539 CNS
SK-MEL-28 melanoma = test system: SK-MEL-28 melanoma
SK-MEL-5 melanoma = test system: SK-MEL-5 melanoma
SK-OV-3 ovarian = test system: SK-OV-3 ovarian
SN12C renal = test system: SN12C renal
SNB-19 CNS = test system: SNB-19 CNS
SNB-75 CNS = test system: SNB-75 CNS
SR leukemia = test system: SR leukemia
SW-620 colon = test system: SW-620 colon
T-47D breast = test system: T-47D breast
TK-10 renal = test system: TK-10 renal
U251 glioblastoma = test system: U251 glioblastoma
UACC-257 melanoma = test system: UACC-257 melanoma
UACC-62 melanoma = test system: UACC-62 melanoma
UO-31 renal = test system: UO-31 renal

CCc1cc(C(N)=O)ccc1-n1nc(C(C)C)c2c(-n3cnc(-c4cnn(C)c4)c3)ccnc21
GI50 (NCI-H226 lung): 3.04 µM
TGI (NCI-H226 lung): > 100 µM
GI50 (NCI-H23 lung): 301 nM
TGI (NCI-H23 lung): 873 nM
GI50 (NCI-H322M lung): 799 nM
TGI (NCI-H322M lung): > 100 µM
GI50 (NCI-H460 NSCLC): 285 nM
TGI (NCI-H460 NSCLC): 645 nM
GI50 (NCI-H522 lung): 210 nM
TGI (NCI-H522 lung): 458 nM
GI50 (NCI/ADR-RES ovarian): 16.9 µM
TGI (NCI/ADR-RES ovarian): 75.4 µM
GI50 (OVCAR-3 ovarian): 454 nM
TGI (OVCAR-3 ovarian): 2230 nM
GI50 (OVCAR-4 ovarian): 6.01 µM
TGI (OVCAR-4 ovarian): > 100 µM
GI50 (OVCAR-8 ovarian): 396 nM
TGI (OVCAR-8 ovarian): 1620 nM
GI50 (RPMI-8226 leukemia): 376 nM
TGI (RPMI-8226 leukemia): 1090 nM
GI50 (RXF 393 renal): 236 nM
TGI (RXF 393 renal): 614 nM
GI50 (SF-268 CNS): 510 nM
TGI (SF-268 CNS): > 100 µM
GI50 (SF-295 CNS): 426 nM
TGI (SF-295 CNS): 1660 nM
GI50 (SF-539 CNS): 304 nM
TGI (SF-539 CNS): 768 nM
GI50 (SK-MEL-28 melanoma): 387 nM
TGI (SK-MEL-28 melanoma): 20 µM
GI50 (SK-MEL-5 melanoma): 532 nM
TGI (SK-MEL-5 melanoma): 39.1 µM
GI50 (SK-OV-3 ovarian): 738 nM
TGI (SK-OV-3 ovarian): > 100 µM
GI50 (SN12C renal): 412 nM
TGI (SN12C renal): 2440 nM
GI50 (SNB-19 CNS): 778 nM
TGI (SNB-19 CNS): > 100 µM
GI50 (SNB-75 CNS): 402 nM
TGI (SNB-75 CNS): 2020 nM
GI50 (SR leukemia): 169 nM
TGI (SR leukemia): 329 nM
GI50 (SW-620 colon): 407 nM
TGI (SW-620 colon): 15.5 µM
GI50 (T-47D breast): 1590 nM
TGI (T-47D breast): 10.1 µM
GI50 (TK-10 renal): 487 nM
TGI (TK-10 renal): > 100 µM
GI50 (U251 glioblastoma): 485 nM
TGI (U251 glioblastoma): 3.08 µM
GI50 (UACC-257 melanoma): 5.93 µM
TGI (UACC-257 melanoma): > 100 µM
GI50 (UACC-62 melanoma): 702 nM
TGI (UACC-62 melanoma): 3.24 µM
GI50 (UO-31 renal): 1130 nM
TGI (UO-31 renal): > 100 µM
